In patent US20110319416A1, “Subunit Selective NMDA Receptor Antagonists For The Treatment Of Neurological Conditions” (EMORY UNIVERSITY, priority 2009, published 2011):
Marks after values point to notes of the source that are not given here. Each block holds one compound with its values, some of them ahead of it.

What was measured:
NR1/NR2A [1] = biological target: NR1/NR2A (Rattus norvegicus, UniProt Q00959); test: Two electrode voltage clamp, Xenopus oocytes expressing recombinant NR1/NR2A; type: cell-based; conditions: for 2A percent response at the maximum tested concentration: at 100 μM
Protocol: (§1) Quality of synthesized cRNA was assessed by gel electrophoresis, and quantity was estimated by spectroscopy and gel electrophoresis. Stage V and VI oocytes were surgically removed from the ovaries of large, well-fed and healthy Xenopus laevis anesthetized with 3-amino-benzoic acid ethyl ester (3 gm/l) as previously described. Clusters of isolated oocytes were incubated with 292 U/ml Worthington (Freehold, N.J.) type IV collagenase or 1.3 mg/ml collagenase (Life Technologies, Gaithersburg, MD; 17018-029) for 2 hr in Ca^2+-free solution comprised of (in mM) 115 NaCl, 2.5 KCl, and 10 HEPES, pH 7.5, with slow agitation to remove the follicular cell layer. Oocytes were then washed extensively in the same solution supplemented with 1.8 mM CaCl2 and maintained in Barth's solution comprised of (in mM): 88 NaCl, 1 KCl, 2.4 NaHCO3, 10 HEPES, 0.82 MgSO4, 0.33 Ca(NO3)2, and 0.91 CaCl2 and supplemented with 100 μg/m1 gentamycin, 10 μg/ml streptomycin, and 10 μg/ml penicillin. Oocytes were manually defolliculated and injected within 24 hrs of isolation with 3-5 ng of NR1 subunit cRNA and 7-10 ng of NR2 cRNA subunit in a 50 nl volume, or 5-10 ng of AMPA or kainate receptor cRNAs in a 50 nl volume, and incubated in Barth's solution at 18° C. for 1-7 d. Glass injection pipettes had tip sizes ranging from 10-20 microns, and were backfilled with mineral oil.
(§2) Two electrode voltage-clamp recordings were made 2-7 days post-injection as previously described. Oocytes were placed in a dual-track plexi-glass recording chamber with a single perfusion line that splits in a Y-configuration to perfuse two oocytes. Dual recordings were made at room temperature (23° C.) using two Warner OC725B two-electrode voltage clamp amplifiers, arranged as recommended by the manufacturer. Glass microelectrodes (1-10 Megaohms) were filled with 300 mM KCl (voltage electrode) or 3 M KCl (current electrode). The bath clamps communicated across silver chloride wires placed into each side of the recording chamber, both of which were assumed to be at a reference potential of 0 mV. Oocytes were perfused with a solution comprised of (in mM) 90 NaCl, 1 KCl, 10 HEPES, and 0.5 BaCl2; pH was adjusted by addition of 1-3 M NaOH of HC1 to 7.4. Oocytes were recorded under voltage clamp at −40 mV. […] In some experiments, 10 μM EDTA was obtained by adding a 1:1000 dilution of 10 mM EDTA, in order to chelate contaminant divalent ions such as Zn^2+. […] Concentration effect curves consisting of 4 to 8 concentrations were obtained in this manner. The baseline leak current at −40 mV was measured before and after recording, and the full recording linearly corrected for any change in leak current. […] Each experiment consisted of recordings from 3 to 10 oocytes obtained from a single frog. Results from multiple experiments were pooled, and the average percent responses at antagonist concentrations were fitted by the equation,
(§3) Percent Response=(100−minimum)/(1+([conc]/IC50)nH)+minimum

NR1/NR2B [2] = biological target: NR1/NR2B (Rattus norvegicus, UniProt P35439+Q00960); test: Two electrode voltage clamp, Xenopus oocytes expressing recombinant NR1/NR2B; type: cell-based; conditions: logistic fit, minimum forced to 0; read-out: 2B IC50
Protocol: as §1, §2, §3

NR1/NR2C [3] = biological target: NR1/NR2C (Rattus norvegicus, UniProt P35439+Q00961); test: Two electrode voltage clamp, Xenopus oocytes expressing recombinant NR1/NR2C; type: cell-based; conditions: logistic fit, minimum forced to 0; read-out: 2C IC50
Protocol: as §1, §2, §3

NR1/NR2D [4] = biological target: NR1/NR2D (Rattus norvegicus, UniProt P35439+Q62645); test: Two electrode voltage clamp, Xenopus oocytes expressing recombinant NR1/NR2D; type: cell-based; conditions: logistic fit, minimum forced to 0; read-out: 2D IC50
Protocol: as §1, §2, §3

NR2D [5] = biological target: T1, NR2D (Homo sapiens, UniProt O15399+Q05586); test: Literature functional antagonist potency at NR2D (Table 1); type: cell-based; conditions: functional Ki ratio
NR2A = NR2A (Homo sapiens, UniProt Q05586+Q12879); conditions: cited from earlier work; for potency estimated from few doses: Ki estimated from functionally determined IC50 at a single agonist concentration, read-out: 2A (μM) Ki**
NR2B [6] = biological target: T2, NR2B (Homo sapiens, UniProt Q05586+Q13224); conditions: Ki estimated from functionally determined IC50 at a single agonist concentration; read-out: 2B (μM) Ki**; cited from earlier work
NR2C = NR2C (Homo sapiens, UniProt Q05586+Q14957); conditions: cited from earlier work; for potency estimated from few doses: Ki estimated from functionally determined IC50 at a single agonist concentration, read-out: 2C (μM) Ki**
NR2D [7] = biological target: T1, NR2D; conditions: cited from earlier work; for potency estimated from few doses: Ki estimated from functionally determined IC50 at a single agonist concentration, read-out: 2D (μM) Ki**
NR2B [8] = biological target: T2, NR2B; test: Literature functional antagonist potency at NR2B (Table 1); conditions: functional Ki ratio
NR1/NR2A [9] = biological target: NR1/NR2A (Rattus norvegicus, UniProt P35439+Q00959); test: Two electrode voltage clamp, Xenopus oocytes expressing recombinant NR1/NR2A; type: cell-based; conditions: logistic fit, minimum forced to 0; read-out: 2A IC50
Protocol: as §1, §2, §3

NR1/NR2B [10] = biological target: NR1/NR2B (Rattus norvegicus, UniProt Q00960); test: Two electrode voltage clamp, Xenopus oocytes expressing recombinant NR1/NR2B; type: cell-based
Protocol: as §1, §2, §3

NR1/NR2C [11] = biological target: NR1/NR2C (Rattus norvegicus, UniProt Q00961); test: Two electrode voltage clamp, Xenopus oocytes expressing recombinant NR1/NR2C; type: cell-based
Protocol: as §1, §2, §3

NR1/NR2D [12] = biological target: T3, NR1/NR2D (Rattus norvegicus, UniProt Q62645); test: Two electrode voltage clamp, Xenopus oocytes expressing recombinant NR1/NR2D; type: cell-based
Protocol: as §1, §2, §3

GluR1 = GluR1 (Rattus norvegicus, UniProt P19490); test: Two electrode voltage clamp, Xenopus oocytes expressing GluR1; type: cell-based
Protocol: as §1, §2, §3

[13] = biological target: homomeric GluR6 kainate receptor (Rattus norvegicus, UniProt P42260); test: Two electrode voltage clamp, Xenopus oocytes expressing homomeric GluR6; type: cell-based; conditions: in words
Protocol: Real time Ca^2+ signals were recorded in 96 well plates using FlexStation II multi-mode plate readers. […] Test compounds were added to each well together with agonist to yield a final well concentration of 10 μM test compound in 0.9% DMSO. Compounds that altered the response of any well compared to on-plate control wells beyond 2.5-fold of the standard deviation (calculated from all wells on the plate) or by more than 40% of the control response on a given plate were selected for secondary screening using two-electrode voltage-clamp recordings from Xenopus oocytes expressing recombinant NR1/NR2D receptors. To complete the secondary screen, we obtained selected compounds in powder form. […] We subsequently initiated novel synthesis on this class of compound.
Quality of synthesized cRNA was assessed by gel electrophoresis, and quantity was estimated by spectroscopy and gel electrophoresis. Stage V and VI oocytes were surgically removed from the ovaries of large, well-fed and healthy Xenopus laevis anesthetized with 3-amino-benzoic acid ethyl ester (3 gm/l) as previously described. […]
Two electrode voltage-clamp recordings were made 2-7 days post-injection as previously described. […] Oocytes were recorded under voltage clamp at −40 mV. […] The baseline leak current at −40 mV was measured before and after recording, and the full recording linearly corrected for any change in leak current. […]

NR1/NR2D [14] = biological target: T3, NR1/NR2D; test: Ca2+ fluorescence screening assay in NR1/NR2D expressing BHK cells (96 well); type: cell-based; design: expressed in transfected cells; host or cells: BHK-21 cells; NR1 induced by doxycyclin (Tet-On), NR2D constitutive; conditions: 10 μM test compound, 100 μM glutamate/1 mM glycine
[15] = not surmounted by agonists at 500-fold of EC50

Sequence of NR1/NR2A (Rattus norvegicus, UniProt Q00959) (Q00959 23-1464, other chains not shown): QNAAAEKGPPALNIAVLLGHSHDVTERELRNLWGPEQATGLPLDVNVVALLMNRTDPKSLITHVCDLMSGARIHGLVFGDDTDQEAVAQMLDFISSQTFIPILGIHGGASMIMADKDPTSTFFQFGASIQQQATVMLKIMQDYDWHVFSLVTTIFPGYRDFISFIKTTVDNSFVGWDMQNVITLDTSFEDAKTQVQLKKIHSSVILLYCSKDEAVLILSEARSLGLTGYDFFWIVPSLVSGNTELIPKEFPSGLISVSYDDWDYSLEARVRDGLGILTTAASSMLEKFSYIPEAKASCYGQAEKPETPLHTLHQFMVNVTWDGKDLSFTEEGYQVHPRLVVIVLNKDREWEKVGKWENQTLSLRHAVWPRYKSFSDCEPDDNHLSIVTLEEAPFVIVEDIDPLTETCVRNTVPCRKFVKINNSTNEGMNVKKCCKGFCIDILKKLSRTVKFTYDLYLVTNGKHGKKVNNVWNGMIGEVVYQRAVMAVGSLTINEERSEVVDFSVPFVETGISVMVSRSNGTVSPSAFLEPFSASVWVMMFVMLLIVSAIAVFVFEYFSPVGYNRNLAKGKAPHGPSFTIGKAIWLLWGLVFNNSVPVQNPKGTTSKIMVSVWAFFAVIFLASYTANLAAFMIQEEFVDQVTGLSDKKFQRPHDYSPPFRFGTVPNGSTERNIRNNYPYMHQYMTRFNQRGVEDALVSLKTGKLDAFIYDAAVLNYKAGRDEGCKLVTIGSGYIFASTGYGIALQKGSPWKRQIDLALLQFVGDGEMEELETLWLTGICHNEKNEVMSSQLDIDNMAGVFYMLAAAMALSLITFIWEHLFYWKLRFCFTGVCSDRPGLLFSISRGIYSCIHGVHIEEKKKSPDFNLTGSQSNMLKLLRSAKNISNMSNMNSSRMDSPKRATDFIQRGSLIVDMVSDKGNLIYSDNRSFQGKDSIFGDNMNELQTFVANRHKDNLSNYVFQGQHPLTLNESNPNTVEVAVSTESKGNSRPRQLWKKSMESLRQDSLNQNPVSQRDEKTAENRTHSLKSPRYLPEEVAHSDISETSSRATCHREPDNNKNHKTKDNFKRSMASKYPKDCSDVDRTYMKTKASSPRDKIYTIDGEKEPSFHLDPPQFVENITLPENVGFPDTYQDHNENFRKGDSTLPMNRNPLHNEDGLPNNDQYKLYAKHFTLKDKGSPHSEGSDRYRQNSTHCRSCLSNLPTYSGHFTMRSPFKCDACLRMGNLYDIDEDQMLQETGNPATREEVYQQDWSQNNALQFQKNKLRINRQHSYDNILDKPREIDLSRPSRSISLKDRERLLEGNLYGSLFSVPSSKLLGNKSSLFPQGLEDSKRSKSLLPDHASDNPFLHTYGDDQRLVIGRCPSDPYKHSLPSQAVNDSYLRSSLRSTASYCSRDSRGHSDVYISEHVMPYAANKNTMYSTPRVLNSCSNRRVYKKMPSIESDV
Sequence of NR2C (Q14957 20-1233, other chains not shown): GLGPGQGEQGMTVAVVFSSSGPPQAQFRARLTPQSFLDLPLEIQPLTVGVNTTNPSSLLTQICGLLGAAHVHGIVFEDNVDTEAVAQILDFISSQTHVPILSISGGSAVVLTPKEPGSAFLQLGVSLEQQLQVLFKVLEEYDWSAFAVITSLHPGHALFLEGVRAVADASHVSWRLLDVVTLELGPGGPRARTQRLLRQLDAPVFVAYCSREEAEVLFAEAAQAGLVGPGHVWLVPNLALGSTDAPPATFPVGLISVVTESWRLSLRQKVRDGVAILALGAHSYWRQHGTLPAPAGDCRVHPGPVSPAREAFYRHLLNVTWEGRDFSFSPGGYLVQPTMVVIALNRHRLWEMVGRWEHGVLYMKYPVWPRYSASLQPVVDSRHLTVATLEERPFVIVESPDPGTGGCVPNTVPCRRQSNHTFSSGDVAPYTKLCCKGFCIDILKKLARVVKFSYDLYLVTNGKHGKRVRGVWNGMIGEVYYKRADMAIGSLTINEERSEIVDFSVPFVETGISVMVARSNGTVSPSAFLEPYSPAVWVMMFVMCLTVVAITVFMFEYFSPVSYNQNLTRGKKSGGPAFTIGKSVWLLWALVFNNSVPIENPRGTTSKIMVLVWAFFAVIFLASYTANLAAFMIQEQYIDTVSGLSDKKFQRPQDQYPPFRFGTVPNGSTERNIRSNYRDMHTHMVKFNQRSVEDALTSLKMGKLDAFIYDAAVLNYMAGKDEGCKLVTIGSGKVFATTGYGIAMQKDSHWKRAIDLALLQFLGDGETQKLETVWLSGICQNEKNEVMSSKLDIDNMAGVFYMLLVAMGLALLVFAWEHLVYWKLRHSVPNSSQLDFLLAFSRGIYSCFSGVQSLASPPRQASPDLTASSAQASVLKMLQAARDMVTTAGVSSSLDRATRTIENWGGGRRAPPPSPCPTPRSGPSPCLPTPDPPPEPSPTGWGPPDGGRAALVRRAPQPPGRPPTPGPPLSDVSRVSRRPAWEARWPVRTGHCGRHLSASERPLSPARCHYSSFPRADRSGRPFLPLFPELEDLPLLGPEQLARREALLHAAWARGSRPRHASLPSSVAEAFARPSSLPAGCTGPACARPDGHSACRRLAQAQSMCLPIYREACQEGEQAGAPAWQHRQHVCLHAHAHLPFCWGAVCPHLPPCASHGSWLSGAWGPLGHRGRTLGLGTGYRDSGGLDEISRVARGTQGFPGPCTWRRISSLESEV
T1 sequence (O15399 28-1336, other chains not shown): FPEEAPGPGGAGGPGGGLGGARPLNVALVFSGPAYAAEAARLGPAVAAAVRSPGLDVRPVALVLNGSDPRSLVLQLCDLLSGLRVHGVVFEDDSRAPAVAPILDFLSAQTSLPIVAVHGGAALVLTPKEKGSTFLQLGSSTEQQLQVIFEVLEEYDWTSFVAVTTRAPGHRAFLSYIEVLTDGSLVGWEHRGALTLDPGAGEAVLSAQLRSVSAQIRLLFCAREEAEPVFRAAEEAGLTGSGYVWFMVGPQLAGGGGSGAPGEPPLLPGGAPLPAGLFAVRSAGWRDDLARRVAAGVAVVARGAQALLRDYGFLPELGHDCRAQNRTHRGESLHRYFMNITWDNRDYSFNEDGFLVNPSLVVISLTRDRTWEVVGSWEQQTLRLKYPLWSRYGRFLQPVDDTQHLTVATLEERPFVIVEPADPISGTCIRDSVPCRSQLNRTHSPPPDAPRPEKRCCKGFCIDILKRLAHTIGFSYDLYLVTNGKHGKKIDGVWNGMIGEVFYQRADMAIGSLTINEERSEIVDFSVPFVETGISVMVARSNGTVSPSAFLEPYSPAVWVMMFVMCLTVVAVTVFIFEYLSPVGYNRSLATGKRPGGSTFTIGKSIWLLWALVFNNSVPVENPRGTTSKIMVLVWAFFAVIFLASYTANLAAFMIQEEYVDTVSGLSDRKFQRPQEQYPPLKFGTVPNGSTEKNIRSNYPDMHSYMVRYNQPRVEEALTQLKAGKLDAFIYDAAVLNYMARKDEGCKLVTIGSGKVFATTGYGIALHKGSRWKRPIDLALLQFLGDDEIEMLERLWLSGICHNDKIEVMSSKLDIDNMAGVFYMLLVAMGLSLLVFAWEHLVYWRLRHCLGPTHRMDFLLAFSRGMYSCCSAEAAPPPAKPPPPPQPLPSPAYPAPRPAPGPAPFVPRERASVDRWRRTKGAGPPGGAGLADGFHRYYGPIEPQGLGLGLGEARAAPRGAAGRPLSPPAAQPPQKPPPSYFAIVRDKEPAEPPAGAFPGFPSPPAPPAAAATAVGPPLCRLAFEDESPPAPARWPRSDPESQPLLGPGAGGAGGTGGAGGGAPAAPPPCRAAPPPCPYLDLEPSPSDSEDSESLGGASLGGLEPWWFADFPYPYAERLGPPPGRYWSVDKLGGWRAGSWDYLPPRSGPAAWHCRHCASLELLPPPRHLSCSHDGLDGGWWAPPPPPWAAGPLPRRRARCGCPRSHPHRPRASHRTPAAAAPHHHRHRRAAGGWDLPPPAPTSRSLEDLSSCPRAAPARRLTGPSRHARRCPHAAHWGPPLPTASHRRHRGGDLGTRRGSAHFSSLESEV
Sequence of GluR1 (P19490 19-907): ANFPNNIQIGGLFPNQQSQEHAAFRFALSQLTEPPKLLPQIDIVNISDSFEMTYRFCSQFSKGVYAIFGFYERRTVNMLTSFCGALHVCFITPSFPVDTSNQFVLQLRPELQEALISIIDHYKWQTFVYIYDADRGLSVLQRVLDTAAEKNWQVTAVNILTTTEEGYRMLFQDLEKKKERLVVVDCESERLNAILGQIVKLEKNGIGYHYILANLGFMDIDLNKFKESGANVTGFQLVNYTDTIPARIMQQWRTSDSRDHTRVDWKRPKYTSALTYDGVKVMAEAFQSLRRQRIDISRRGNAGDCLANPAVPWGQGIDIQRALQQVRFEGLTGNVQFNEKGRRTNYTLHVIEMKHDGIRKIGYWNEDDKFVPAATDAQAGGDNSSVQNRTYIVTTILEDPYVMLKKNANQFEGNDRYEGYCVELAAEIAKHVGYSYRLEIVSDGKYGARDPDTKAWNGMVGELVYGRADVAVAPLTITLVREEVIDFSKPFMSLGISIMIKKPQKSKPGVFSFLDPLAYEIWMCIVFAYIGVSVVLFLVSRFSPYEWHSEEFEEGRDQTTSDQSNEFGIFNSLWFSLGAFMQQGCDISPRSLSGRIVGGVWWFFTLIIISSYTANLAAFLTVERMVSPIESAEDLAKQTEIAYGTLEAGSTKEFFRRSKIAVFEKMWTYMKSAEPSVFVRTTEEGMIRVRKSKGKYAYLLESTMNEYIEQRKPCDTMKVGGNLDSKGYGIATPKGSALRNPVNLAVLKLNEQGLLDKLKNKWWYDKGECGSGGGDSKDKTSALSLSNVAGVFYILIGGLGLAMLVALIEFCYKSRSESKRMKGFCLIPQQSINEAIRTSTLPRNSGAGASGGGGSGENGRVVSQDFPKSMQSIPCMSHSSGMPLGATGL

Compound: O=C(O)[C@H]1CN(CCCP(=O)(O)O)CCN1 [(R)CPP]
2A/2D (ratio of Ki**) (NR2D [5]): 0.02** | potency estimated from few doses (NR2A): 0.04 µM | potency estimated from few doses (NR2B [6]): 0.27 µM | potency estimated from few doses (NR2C): 0.63 µM | potency estimated from few doses (NR2D [7]): 2 µM | 2A/2B (ratio of Ki**) (NR2B [8]): 0.2**

Compound: O=C(O)[C@H]1NCCN(C(=O)c2ccc3ccc4ccccc4c3c2)[C@H]1C(=O)O [UBP141]
2A/2D (ratio of Ki**) (NR2D [5]): 5.1** | potency estimated from few doses (NR2A): 14.2 µM | potency estimated from few doses (NR2B [6]): 19.3 µM | potency estimated from few doses (NR2C): 4.2 µM | potency estimated from few doses (NR2D [7]): 2.8 µM | selectivity for NR2D over NR2A (NR2D [7]; estimated Ki): ~5 fold | 2A/2B (ratio of Ki**) (NR2B [8]): 0.7**

Compound: CCN(CC)C(=S)Oc1ccc(C(=O)Nc2cccc3ccccc23)cc1 [compound 1063]
IC50 (NR1/NR2A [9]): 1370 µM | effect on NR2A-containing receptors (NR1/NR2A [1]; in words): little effect | IC50 (NR1/NR2B [2]): 1230 µM | effect on NR2B-containing receptors (NR1/NR2B [10]; in words): little effect | IC50 (NR1/NR2C [3]): 2 µM | IC50 (half maximally inhibiting concentration), NR1/NR2C (NR1/NR2C [11]; in words): low micromolar | mode of block of NR1/NR2C receptors (NR1/NR2C [11]; [15]): non-competitive and voltage-independent blocker | maximum inhibition of NR1/NR2C receptor function (NR1/NR2C [11]; voltage clamp): 85% | IC50 (NR1/NR2D [4]): 1 µM | selectivity for NR1/NR2D compared to NR1/NR2A (NR1/NR2D [12]; fitted IC50 values): > 500 fold | IC50 (half maximally inhibiting concentration), NR1/NR2D (NR1/NR2D [12]; in words): low micromolar | mode of block of NR1/NR2D receptors (NR1/NR2D [12]; [15]): non-competitive and voltage-independent blocker | maximum inhibition of NR1/NR2D receptor function (NR1/NR2D [12]; voltage clamp): 85% | remaining activity at 100 µM (GluR1; at 100 μM, read-out: GluR1 percent effect at the maximum tested concentration): 105% | effect on recombinant AMPA receptors (GluR1; in words): little effect | effect on recombinant kainate receptors [13]: little effect

Compound: CC(C(O)c1ccc(O)cc1)N1CCC(Cc2ccccc2)CC1 (centres unmarked) [Ifenprodil]
IC50 (NR2A; read-out: 2A (μM) IC50, non-competitive and uncompetitive antagonists): 40 µM | IC50 (NR2C; read-out: 2C (μM) IC50, non-competitive and uncompetitive antagonists): 29 µM | IC50 (NR2D [7]; read-out: 2D (μM) IC50, non-competitive and uncompetitive antagonists): 76 µM | identification in test screen of NR1/NR2D expressing BHK cells (NR1/NR2D [14]): successfully identified

Further lines, results first:

2A percent response at the maximum tested concentration (NR1/NR2A [1]): 87% at 100 μM | IC50 (NR1/NR2B [2]): 90 µM | IC50 (NR1/NR2C [3]): 33 µM | IC50 (NR1/NR2D [4]): 22 µM
Compound: O=C(O)CCC(=O)N1N=C(c2c(-c3ccccc3)c3cc(Br)ccc3[nH]c2=O)CC1c1ccc(F)cc1 (centres unmarked) [compound 1184]

2A percent response at the maximum tested concentration (NR1/NR2A [1]): 85% at 100 μM | IC50 (NR1/NR2B [2]): 209 µM | IC50 (NR1/NR2C [3]): 33 µM | IC50 (NR1/NR2D [4]): 27 µM
Compound: Cc1nc2ccc(Br)cc2c(-c2ccccc2)c1C1=NN(C(=O)CCC(=O)O)C(c2ccc(Br)cc2)C1 (centres unmarked) [compound 1210]

IC50 (NR1/NR2A [9]): 123 µM | IC50 (NR1/NR2B [2]): 22 µM | IC50 (NR1/NR2B [10]; logistic fit, minimum forced to 0, read-out: 2B IC50): 22 µM | IC50 (NR1/NR2C [3]): 4 µM | IC50 (NR1/NR2C [11]; logistic fit, minimum forced to 0, read-out: 2C IC50): 4 µM | IC50 (NR1/NR2D [4]): 2 µM
Compound: O=C(O)CCC(=O)N1N=C(c2c(-c3ccccc3)c3cc(Cl)ccc3[nH]c2=O)CC1c1ccc(Br)cc1 (centres unmarked) [compound 1179]
